Data: patent US9040567B2, “BAX agonist, compositions, and methods related thereto” (Emory University, priority 2011, dated 2015)
Read-outs that look alike come from different tables or passages of the source.

Tests used:
A549 cells [1] = test system: A549 cells
BAX = biological target: T1, BAX (Homo sapiens, UniProt Q07812); assay: BAX phosphorylation in 32P-labeled A549 cells (autoradiography); format: cell-based; details: nicotine 1 μM, 60 min
T1 construct: A549 cells expressing endogenous BAX were metabolically labeled; endogenous in cells; host or cells: A549 cells
T1 sequence (Q07812 whole entry): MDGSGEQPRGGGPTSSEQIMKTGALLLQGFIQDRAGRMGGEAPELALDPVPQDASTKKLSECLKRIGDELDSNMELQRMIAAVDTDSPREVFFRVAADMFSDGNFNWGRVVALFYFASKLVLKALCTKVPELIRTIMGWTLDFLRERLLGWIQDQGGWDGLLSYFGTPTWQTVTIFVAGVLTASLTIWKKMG
Experimental: (§1) (A) A549 cells expressing endogenous BAX were metabolically labeled with ^32P-orthophosphoric acid and treated with nicotine for 60 min. BAX was immunoprecipitated by using an agarose-conjugated BAX antibody. Phosphorylation of BAX was determined by autoradiography. […] (C) A549 cells were treated with cisplatin (40 μM) in the absence or presence of nicotine (1 μM) for various times as indicated. Cell viability was analyzed for Annexin-V and PI binding by flow cytometry. […] Cells were metabolically labeled with ^32P-orthophosphoric acid and treated with nicotine for 60 min. Phosphorylated GFP-tagged BAX was analyzed by autoradiography. […] After 48 h, cells were treated with cisplatin (Cis) in the absence or presence of nicotine for 24 h. Cell viability was analyzed as in (C).
(§2) To test whether BAX phosphorylation occurs in human lung cancer cells, A549 cells were metabolically labeled and treated with nicotine (1 μM) for 60 min. […] To test whether nicotine induces BAX phosphorylation at ser184, WT, S184A or S184E cDNA in the pcDNA3 mammalian expression vector was transfected into H157 cells.

BAX Ser184 = assay: BAX phosphorylation in H157 cells transfected with WT, S184A or S184E BAX; format: cell-based, human; details: H157 cells expressing WT, 60 min
Experimental: as §1, §2

[2] = test system: A549 human lung cancer cells; assay: sulforhodamine B (SRB) assay, surviving cell fraction; format: cell-based
H1299 cells = assay: apoptosis by ApoAlert Annexin-V kit in H1299 cells; details: 1 μM, 48 h
Experimental: (§3) (B) H1299, A549 or SAEC cells were treated with various types of small molecules (1 μM) for 48 h. Cell viability was assessed using ApoAlert Annexin-V kit. DMSO or cisplatin (40 μM) was used as a negative or positive control, respectively.

[3] = test system: A549 lung cancer xenografts; assay: TUNEL assay of apoptosis in xenograft tumor tissues; details: 50 mg/kg for 24 h
Experimental: Apoptosis in tumor tissues was measured by TUNEL assay.
Apoptosis in tumor tissues was analyzed by TUNEL assay.

[4] = test system: A549 lung cancer xenografts; assay: A549 subcutaneous lung tumor xenografts in nude mice
Experimental: At day 6, tumors were removed and photographed. […] Tumor volume was estimated by caliper measurements, data are mean±s.e.m. […] Apoptosis in tumor tissues was measured by TUNEL assay.

A549 cells [5] = assay: apoptosis by ApoAlert Annexin-V kit in A549 cells; details: 1 μM, 48 h
Experimental: as §3

[6] = test system: primary normal small airway epithelial cells (SAEC); assay: apoptosis by ApoAlert Annexin-V kit in normal small airway epithelial cells; details: 1 μM, 48 h
Experimental: as §3

[7] = A549 cells, 48 h, SRB assay, read-out: IC50

SMILES: CN1CCCC1c1cccnc1 (stereo not drawn) [nicotine]
- survival of A549 cells following cisplatin treatment (A549 cells [1]; cisplatin 40 μM, nicotine 1 μM): significantly prolongs survival of A549 cells
- BAX phosphorylation (BAX): potently stimulates serine phosphorylation of BAX
- phosphorylation of WT and mutant BAX (BAX Ser184): induces phosphorylation of WT but not S184A or S184E mutant BAX

SMILES: NCCOc1ncccc1C=C1c2ccccc2-c2ccc([N+](=O)[O-])cc21 [CYD-4-61, 2-[3-(2-Nitro-fluoren-9-ylidenemethyl)-pyridin-2-yloxy]-ethylamine]
- IC50 ([2]; A549, 48 h): 0.026 µM

SMILES: O=[N+]([O-])c1ccc2c(c1)C(=Cc1ccccc1O)c1ccccc1-2 [SMBA1]
- apoptotic effect (H1299 cells): potent apoptotic effect
- apoptosis in tumor tissues (TUNEL) [3]: resulted in apoptosis in tumor tissues
- tolerability of treatment doses ([4]; 25, 50 or 75 mg/kg i.p. q.d. for two weeks): well tolerated
- effect on established tumor xenografts (tumor volume) ([4]; 25, 50 or 75 mg/kg i.p. q.d. for two weeks, preliminary results): significant regression of established lung cancer xenografts
- toxicities on liver, kidney and heart ([4]; doses of 50-75 mg/kg): well tolerated without significant toxicities on liver, kidney and heart
- apoptotic effect (A549 cells [5]): potent apoptotic effect
- apoptotic cell death in combination with cisplatin (A549 cells [1]; combination with cisplatin): enhances apoptotic cell death
- apoptotic effect on normal cells compared to H1299 or A549 cells [6]: significantly less apoptotic effect

SMILES: O=[N+]([O-])c1ccc2c(c1)C(=Cc1ccccc1OC1CCNCC1)c1ccccc1-2 [CYD-2-13, 4-[2-(2-Nitro-fluoren-9-ylidenemethyl)-phenoxy]-piperidine]
- IC50 [2, 7]: 5.91 µM

SMILES: NCCOc1ccccc1C=C1c2ccccc2-c2ccc([N+](=O)[O-])cc21 [CYD-2-11, 2-[2-(2-Nitro-fluoren-9-ylidenemethyl)-phenoxy]-ethylamine]
- IC50 [2, 7]: 1.93 µM

SMILES: CC(=O)N1CCN(CCOc2ccccc2C=C2c3ccccc3-c3ccc([N+](=O)[O-])cc32)CC1 [CYD-2-17, 1-(4-{2-[2-(2-Nitro-fluoren-9-ylidenemethyl)-phenoxy]-ethyl}-piperazin-1-yl)-ethanone]
- IC50 [2, 7]: 5.08 µM
